Source: patent publication US5688830A, “Treatment of neuropathic pain” (Syntex (U.S.A.) Inc., priority 1997, dated 1997)
Read-outs that look alike come from different tables or passages of the source.

Columns and labels:
[1] = tested on: cold allodynia in rats; assay: Cold allodynia in vivo assay (chronic constriction injury), chronic studies; design: species or system rat; conditions: for anti-allodynia after chronic dosing: subcutaneous, 5 days of twice daily dosing
Method: This assay determines the effectiveness of compounds in relieving one of the symptoms of neuropathic pain produced by unilateral mononeuropathy, namely cold allodynia. Unilateral mononeuropathy was produced in rats using the Chronic Constriction Injury model performed essentially as described by Bennet and Xie, Pain, (1988) 33:87-107. Briefly, the rats were anesthetized with an intraperitoneal dose of pentobarbital sodium (65 mg/kg) with additional doses of anesthetic given as needed. The lateral aspect of each rat's hind limb was shaved and scrubbed with Novasan. Using aseptic technique, an incision was made on the lateral aspect of the hind limb at the mid-thigh level. The biceps femoris was bluntly dissected to expose the sciatic nerve. On the right hind limb of each rat, four loosely tied ligatures were made around the sciatic nerve approximately 1-2 millimeters apart. On the left side of each rat, an identical dissection was performed except that the sciatic nerve was not ligated. The muscle was closed with a continuous suture pattern, and the skin was closed with wound clips. Each rat was placed individually into a plexiglass chamber with a metal plate 6 cm from the bottom. This chamber was filled with ice water to a depth of 2.5 cm above the metal plate, with the temperature of the bath maintained at 0° C. throughout the experiment. A timer was started, and the rat's response latency was measured to the nearest tenth of a second. A "response" was defined as a rapid withdrawal of the right ligated hindpaw completely out of the water while the animal was stationary and not pivoting. An exaggerated limp while the animal was walking was not scored as a response. Maximum immersion time was 20 seconds with a 20 minute interval between trials. The screening criteria were 1) the average of two trials was less than or equal to 13 seconds, and 2) there was consistency across the two trial scores. Animals were screened for hypersensitivity to cold on post-surgery days 4 through 10, and selected for inclusion in dose-response studies based on the criteria described above. The pre-dose screening values were used as the animal's baseline cold allodynia scores. For chronic studies, the animals received subcutaneous or oral injections twice daily for 4 days and once on day 5. The animals were tested for allodynia on day 1 at 1, 3 and 5 hours following the 8 am dose, and at 5 hours following the 8 am dose on days 3 and 5. Two days later, the animals were tested for cold allodynia to assess whether there was a wash-out of the drug being tested. Following this screening for cold allodynia, the animals in two of the three chronic studies received either subcutaneous or oral injections of the drug at a dose previously shown to produce significant anti-allodynic effects acutely. […]

[2] = tested on: voltage-gated sodium channels ([3H]BTX binding, rat cortex); assay: [3H]BTX binding assay, rat cortex membranes
Method: The following assays characterize the interaction of the compounds of Formula I with ligand binding sites on voltage-gated sodium channels.
Frozen tissues were obtained from Pel-Freez Biologicals (Rogers, AR). Tissues were homogenized in 10 volumes of a Tris-sucrose buffer (10 mM Tris-HCl, 250 mM sucrose, pH 7.4 at 4° C.) using 10 strokes with a glass-glass, hand-held homogenizer. The homogenates were filtered through nylon mesh and then centrifuged at 1,000×g for 15 minutes. The pellets were resuspended in a Hepes buffer (50 mM Hepes, 130 mM choline chloride, 5 mM glucose, 5.4 mM KCl, pH 7.4 at 4° C.). The resuspended pellets were centrifuged at 1,000×g for 15 minutes, resuspended in a Hepes buffer (50 mM Hepes, 130 mM choline chloride, 5 mM glucose, 5.4 mM KCl, pH 7.4 at 25° C.) and, frozen at -70° C. until used in binding assays.
Nonspecific binding was defined in the presence of 1 mM veratridine. Unless otherwise specified, PbTx (0.1 μM) and LqTx (50 μg/ml) were included in the assays. Membranes were incubated for 60 minutes at 25° C. and then filtered using GF/B glass fiber filters that had been pretreated with 0.3% PEI. Filters were rinsed with 3×1 ml of ice cold 50 mM Tris-HCl (pH 7.4 at 4° C.) and the bound radioactivity was determined by scintillation counting (Packard Top-count).

[3] = tested on: cold allodynia in rats; assay: Cold allodynia in vivo assay (chronic constriction injury), acute studies; design: species or system rat; conditions: subcutaneous; for ED50: Rattus norvegicus, sc
Method: This assay determines the effectiveness of compounds in relieving one of the symptoms of neuropathic pain produced by unilateral mononeuropathy, namely cold allodynia. Unilateral mononeuropathy was produced in rats using the Chronic Constriction Injury model performed essentially as described by Bennet and Xie, Pain, (1988) 33:87-107. Briefly, the rats were anesthetized with an intraperitoneal dose of pentobarbital sodium (65 mg/kg) with additional doses of anesthetic given as needed. The lateral aspect of each rat's hind limb was shaved and scrubbed with Novasan. Using aseptic technique, an incision was made on the lateral aspect of the hind limb at the mid-thigh level. The biceps femoris was bluntly dissected to expose the sciatic nerve. On the right hind limb of each rat, four loosely tied ligatures were made around the sciatic nerve approximately 1-2 millimeters apart. On the left side of each rat, an identical dissection was performed except that the sciatic nerve was not ligated. The muscle was closed with a continuous suture pattern, and the skin was closed with wound clips. Each rat was placed individually into a plexiglass chamber with a metal plate 6 cm from the bottom. This chamber was filled with ice water to a depth of 2.5 cm above the metal plate, with the temperature of the bath maintained at 0° C. throughout the experiment. A timer was started, and the rat's response latency was measured to the nearest tenth of a second. A "response" was defined as a rapid withdrawal of the right ligated hindpaw completely out of the water while the animal was stationary and not pivoting. An exaggerated limp while the animal was walking was not scored as a response. Maximum immersion time was 20 seconds with a 20 minute interval between trials. The screening criteria were 1) the average of two trials was less than or equal to 13 seconds, and 2) there was consistency across the two trial scores. Animals were screened for hypersensitivity to cold on post-surgery days 4 through 10, and selected for inclusion in dose-response studies based on the criteria described above. The pre-dose screening values were used as the animal's baseline cold allodynia scores. For acute studies, the animals received either subcutaneous or oral injections and were tested for cold allodynia at 1, 3, and sometimes 5 hours post-dose. The selection of doses was similar to that of Example 12C.

[4] = Adverse effects / gross behavior on dosing; assay type: in vivo, rat
Method: The doses for the acute and chronic studies were selected on the basis of prior assessment of the acute effects on the test compounds on the gross behavior in normal rats. Briefly, the rats were weighed and grouped into cages, dosed with the test compound, and observed continuously for changes in behavior. […] Pinna and corneal reflexes were tested by using a piece of natural hair from a brush that is attached to a glass rod. The righting reflexes were tested by placing the rat flat on its back, and recording the time it takes for the animal to right itself onto all four legs. The posture and gait were assessed by placing the rat on the floor.
The selection of doses was similar to that of Example 12C.

[5] = cold allodynia, acute, 1 hr, read-out: ED50 1 hr
[6] = subcutaneous, cold allodynia acute study
[7] = cold allodynia, acute, in words

## CCNC(C)COc1c(C)cccc1C (racemic) [Formula I racemate, [2-(2,6-dimethylphenoxy)-1-methylethyl]-ethylamine]
[1]
  anti-allodynia after chronic dosing: significant levels of anti-allodynia
[2]; [3H]BTX binding, rat cortex vs rat heart or dorsal root ganglion
  potency in rat cortex greater than in rat heart or rat dorsal root ganglion: approximately 10 fold
[2]; rat cortex membranes
  inhibition of [3H]BTX binding: inhibited
[3]; [5]
  ED50: 15.7 mg/kg
[3]; cold allodynia, acute, 1 hr
  Emax 1 hr: 82%
[3]; 5 mg/kg, 1, 3 or 5 hours post-dose
  anti-allodynic effect, acute dosing: no significant anti-allodynic effects
[4]; [6]
  doses with adverse side effects / behavioral problems: higher than 60 mg/kg
[4]; subcutaneous, cold allodynia acute study, doses higher than 60 mg/kg
  adverse side effects observed: convulsions and immobility

## CCN[C@H](C)COc1c(C)cccc1C [Formula I (R)-, (R)-[2-(2,6-dimethylphenoxy)-1-methylethyl]-ethylamine]
[1]; oral, chronic, (R)-enantiomer 10 and 20 mg/kg, sub-threshold
  anti-allodynic effect after chronic oral dosing: as robust an anti-allodynic effect as an acute dose of compound I that is 10 fold higher
[1]
  anti-allodynia after chronic dosing: significant levels of anti-allodynia
[2]; rat brain cortex membranes
  potency of (R)- versus (S)-enantiomer in inhibiting [3H]BTX binding: no difference in the potencies
[3]; [5]
  ED50: 37 mg/kg
[3]; cold allodynia, acute, 3 hr, read-out: ED50 3 hr
  ED50: 23.4 mg/kg
[3]; cold allodynia, acute, 1 hr
  Emax 1 hr: 91%
[3]; cold allodynia, acute, 3 hr
  Emax 3 hr: 87%
[3]; [7]
  duration of action in vivo compared with racemate, (S)-enantiomer, or II: longer duration of action
  maximal analgesic activity (Emax) compared with III or IV: significantly greater maximal analgesic activity
  maximal analgesic activity compared with racemate, (S)-enantiomer, or II: greater maximal analgesic activity
  potency (ED50) comparison of (R)-isomers: comparable potency
[4]; oral administration, mechanical allodynia study
  doses with adverse side effects: ≥ 300 mg/kg
[4]; oral administration, vs (S)-enantiomer
  safety profile: cleaner safety profile
[4]; [6]
  doses with adverse side effects / behavioral problems: ≥ 300 mg/kg
[4]; subcutaneous, cold allodynia acute study, vs racemate, (S)-enantiomer, or II
  safety profile: cleaner safety profile
